Literature values in US5922313A, “Antibacterial composition” (Bio-Safe Enterprises, Inc., priority 1998, dated 1999).

nonylphenol thoxylate
virus killing (HIV): effective in killing hepatitis B and HIV viruses | virus killing (hepatitis B): effective in killing hepatitis B and HIV viruses
